For data set [1], the target named is T1, EGF receptor tyrosine kinase (Homo sapiens, UniProt P00533).
T1 construct: tested in intact A431 cells; endogenous in cells; host or cells: A431 cells
The experiment in a line: EGFR phosphorylation in intact A 431 cells. Format: cell-based. The following applies: intact A431 cells; read-out: EGFR phosphorylation in vivo (A 431 cells), IC 50. The procedure:
The compounds according to the invention were furthermore investigated in vitro using isolated plasma membranes of Swiss 3T3 cells and using PDGF receptor purified from overexpressing cells, tested in intact A431 cells (and in some cases also in Swiss 3T3 plasma membranes) for possible inhibition of the EGF receptor tyrosine kinase and tested for inhibition of recombinant Src kinase.
30 μM. The compounds thus have specificity for the inhibition of the PDGF receptor tyrosine kinase in relation to other tyrosine kinases.

Data set [2] deals with sis-transformed NIH3T3 cells. The experiment in a line: Colony formation of sis-3T3 cells in soft agar. Format: cell-based. Conditions: Mus musculus, read-out: Colony formation (sis-3T3 cells), IC 50. From the text:
Furthermore, the compounds were investigated for a possible antitransforming action using sis-transformed NIH3T3 cells. In these cells, a transformed phenotype characterized, inter alia, by irregular multilayered growth and colony formation in soft agar is maintained by expression of PDGF-BB and permanent activation of the endogenous PDGF receptors.

In data set [3] the test system is Swiss 3T3 cells. The experiment in a line: DNA synthesis in growth factor stimulated Swiss 3T3 cells. Format: cell-based. From the text: DNA synthesis tests in Swiss 3T3 cells which are stimulated with different growth factors are suitable for characterizing selective antiproliferative actions of receptor tyrosine kinase inhibitors. The compounds were investigated with respect to their action on the DNA sythesis stimulated in these cells by PDGF-BB, bFGF, FCS and the combination of EGF and insulin. These stimulants are approximately equipotent and increase the DNA synthesis in previously growth-arrested Swiss 3T3 cells to 5- to 20-fold.

The target of data set [4] is T2, PDGF receptor (Mus musculus, UniProt P05622).
T2 construct: other: Swiss 3T3 cells, 2 h incubation with compound; PDGFR phosphorylation in vivo (Swiss 3T3 cells), IC 50; other: intact Swiss 3T3 cells; PDGFR phosphorylation in vitro (Swiss 3T3 membranes), IC 50; other: isolated plasma membranes of Swiss 3T3 cells
T2 sequence (P05622 32-1098): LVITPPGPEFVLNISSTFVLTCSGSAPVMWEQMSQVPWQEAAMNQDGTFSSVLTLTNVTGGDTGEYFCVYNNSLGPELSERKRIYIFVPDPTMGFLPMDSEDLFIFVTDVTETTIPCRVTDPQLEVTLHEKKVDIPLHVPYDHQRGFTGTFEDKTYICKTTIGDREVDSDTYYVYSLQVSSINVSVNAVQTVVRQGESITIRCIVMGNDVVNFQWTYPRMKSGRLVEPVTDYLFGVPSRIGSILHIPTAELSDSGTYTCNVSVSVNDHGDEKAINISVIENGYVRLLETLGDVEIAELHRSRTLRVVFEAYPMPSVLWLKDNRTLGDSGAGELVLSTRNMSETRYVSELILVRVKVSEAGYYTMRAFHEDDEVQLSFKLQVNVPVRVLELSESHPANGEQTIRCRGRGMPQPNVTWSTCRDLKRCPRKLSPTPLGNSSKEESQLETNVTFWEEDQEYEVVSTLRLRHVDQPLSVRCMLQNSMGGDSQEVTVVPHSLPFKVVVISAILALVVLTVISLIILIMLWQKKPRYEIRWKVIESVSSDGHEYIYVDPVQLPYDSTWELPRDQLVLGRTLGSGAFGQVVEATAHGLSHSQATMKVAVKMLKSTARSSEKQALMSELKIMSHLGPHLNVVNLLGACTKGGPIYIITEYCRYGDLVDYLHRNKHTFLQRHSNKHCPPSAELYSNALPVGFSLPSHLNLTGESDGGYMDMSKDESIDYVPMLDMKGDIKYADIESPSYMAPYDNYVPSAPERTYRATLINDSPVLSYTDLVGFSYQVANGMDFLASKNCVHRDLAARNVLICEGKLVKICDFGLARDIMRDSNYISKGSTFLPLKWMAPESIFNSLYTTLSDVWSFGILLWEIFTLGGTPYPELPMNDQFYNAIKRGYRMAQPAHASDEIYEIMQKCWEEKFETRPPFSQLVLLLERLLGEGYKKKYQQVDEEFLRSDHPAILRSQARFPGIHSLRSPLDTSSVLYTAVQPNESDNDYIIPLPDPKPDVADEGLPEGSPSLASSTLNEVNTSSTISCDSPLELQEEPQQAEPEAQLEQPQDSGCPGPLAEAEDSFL
The data set can be described thus: Inhibition of PDGF-dependent tyrosine phosphorylation in intact Swiss 3T3 cells. Format: cell-based. The following applies: 2 h incubation with compound, PDGF-BB 100 ng/ml for 5 min, read-out: IC 50 (μM), inhibition of PDGF-dependent tyrosine phosphorylation.
Procedure: Swiss 3T3 cells are cultured for 1 week under standard conditions (DMEM with glutamine, 4 g of glucose/1, 10% FCS, antibiotics, 5-7.5% CO2) and are confluent and no longer proliferating at the end of the culture period. The medium is replaced by serum-free DMEM and the cells are incubated at 37° C. for 2 h with the compounds according to the invention or, in control experiments, with DMSO (final concentration 0.1-1%). The cells are then stimulated at room temperature for 5 min by addition of PDGF-BB to a final concentration of 100 ng/ml, in controls addition of the corresponding solvent takes place. The cells are then washed twice with ice-cold PBS and lysed in a Triton X-100-containing lysis buffer (composition and process as described in Selective platelet-derived growth factor receptor kinase blockers reverse sis-transformation M. Kovalenko, A. Gazit, A. Böhmer, C. Rorsman, L. Rönnstrand, C. H. Heldin, J. Waltenberger, F. D. Böhmer, A. Levitzki (1994) Cancer Res. 54, 6106-6114). The lysates are centrifuged and the protein concentration is determined. […]
Tyrosine phosphorylation is detected by standard processes using antiphosphosphotyrosine [sic]antibodies. […] Quantification is carried out either by grey value analyses of films used for the luminescence detection or directly using a luminometer. […]

This is an account of results in patent publication US6812243B2, “Indole derivatives and their use for the treatment of malignant and other diseases based on pathological proliferation” (Zentaris AG, priority 1998, dated 2004).

Structures are written as SMILES. Read-outs that look alike come from different tables or passages of the source. A value given as a limit tells only on which side of the number the result lay.

T1 sequence (P00533 25-1210): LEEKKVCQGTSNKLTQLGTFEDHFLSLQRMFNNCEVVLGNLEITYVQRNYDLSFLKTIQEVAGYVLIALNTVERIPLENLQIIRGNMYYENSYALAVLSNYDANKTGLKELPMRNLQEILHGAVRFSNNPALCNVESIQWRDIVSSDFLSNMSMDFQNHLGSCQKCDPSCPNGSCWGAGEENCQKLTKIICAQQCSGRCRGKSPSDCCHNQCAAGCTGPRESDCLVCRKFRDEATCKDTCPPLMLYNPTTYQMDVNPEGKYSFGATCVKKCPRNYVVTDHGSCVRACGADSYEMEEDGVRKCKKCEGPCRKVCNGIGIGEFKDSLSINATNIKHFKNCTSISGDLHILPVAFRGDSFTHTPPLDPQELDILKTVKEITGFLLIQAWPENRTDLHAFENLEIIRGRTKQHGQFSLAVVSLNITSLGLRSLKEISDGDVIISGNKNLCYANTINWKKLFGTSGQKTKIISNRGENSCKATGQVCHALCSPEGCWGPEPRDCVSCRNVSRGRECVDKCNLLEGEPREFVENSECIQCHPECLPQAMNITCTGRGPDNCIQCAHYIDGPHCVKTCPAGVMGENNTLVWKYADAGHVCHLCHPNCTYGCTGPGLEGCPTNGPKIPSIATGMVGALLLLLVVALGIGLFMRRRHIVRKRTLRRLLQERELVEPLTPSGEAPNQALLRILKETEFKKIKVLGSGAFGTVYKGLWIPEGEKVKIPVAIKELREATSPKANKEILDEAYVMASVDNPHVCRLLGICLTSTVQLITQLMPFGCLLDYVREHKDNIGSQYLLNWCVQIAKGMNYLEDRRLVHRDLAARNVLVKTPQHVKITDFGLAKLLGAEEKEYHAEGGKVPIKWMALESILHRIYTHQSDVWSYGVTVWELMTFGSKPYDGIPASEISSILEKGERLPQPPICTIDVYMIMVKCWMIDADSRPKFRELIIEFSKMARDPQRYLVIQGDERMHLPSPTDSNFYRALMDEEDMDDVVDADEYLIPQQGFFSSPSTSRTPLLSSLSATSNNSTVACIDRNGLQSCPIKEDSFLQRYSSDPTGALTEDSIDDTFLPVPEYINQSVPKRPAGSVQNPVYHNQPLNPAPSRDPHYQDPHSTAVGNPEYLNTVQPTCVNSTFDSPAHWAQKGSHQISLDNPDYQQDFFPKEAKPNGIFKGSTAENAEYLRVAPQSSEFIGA

Take `O=C(c1cc2ccccc2[nH]1)c1cc2ccccc2[nH]1` [Example 19, Bisindol-2-ylmethan-1-one]: the IC50 in data set [1] was greater than 10 µM; in data set [2] it was 3 to 10 µM; in data set [3] (Swiss-3T3, read-out: DNA synthesis (Swiss 3T3 cells), 10% FCS, IC 50), greater than 30 µM; in data set [3] (Swiss-3T3, read-out: DNA synthesis (Swiss 3T3 cells), EGF/insulin-stimulated, IC 50), greater than 30 µM; in data set [3] (Swiss-3T3, read-out: DNA synthesis (Swiss 3T3 cells), FGF-stimulated, IC 50), 3 to 10 µM; in data set [3] (Swiss-3T3, read-out: DNA synthesis (Swiss 3T3 cells), PDGF-stimulated, IC 50), 3 to 10 µM.

By melting point is commonly meant the temperature, or range, at which the solid turns liquid. `COc1ccc2[nH]c(C(=O)c3cc4ccccc4[nH]3)cc2c1` [Example 20, (5-Methoxyindol-2-yl)-(indol-2-yl)methan-1-one]: the melting point fell in the range of 233 to 235 °C. In addition, in data set [1], the IC50 was greater than 10 µM. In the case of `O=C(Cc1cccs1)Oc1ccc2[nH]c(C(=O)c3cc4ccccc4[nH]3)cc2c1` [Example 58], in data set [4], the IC50 was in the range of 0.3 to 1 µM. For `CN1C(=O)C(Br)=C(c2c(CCc3[nH]c4ccccc4c3C3=C(Br)C(=O)N(C)C3=O)[nH]c3ccccc23)C1=O` [Example 116, 3-Bromo-4-(2-(2-(3-(4-bromo-1-methyl-2,5-dioxo-2,5-dihydro-1H-3-pyrrolyl)-1H-2-indolyl)ethyl)-1H-3-indolyl)-1-methyl-2,5-dihydro-1H-pyrrole-2,5-dione], the melting point was 179 °C. On the same count and under the same terms, in the case of `CN1C(=O)C(Br)=C(c2c(CCCCc3[nH]c4ccccc4c3C3=C(Br)C(=O)N(C)C3=O)[nH]c3ccccc23)C1=O` [Example 117, 3-Bromo-4-(2-(4-(3-(4-bromo-1-methyl-2,5-dioxo-2,5-dihydro-1H-3-pyrrolyl)-1H-2-indolyl)butyl)-1H-3-indolyl)-1-methyl-2,5-dihydro-1H-pyrrole-2,5-dione] it was 190 °C (dec.). On the same count and under the same terms, in the case of `CN1C(=O)C(Br)=C(c2c(CCCCCCCCc3[nH]c4ccccc4c3C3=C(Br)C(=O)N(C)C3=O)[nH]c3ccccc23)C1=O` [Example 118, 3-Bromo-4-(2-(8-(3-(4-bromo-1-methyl-2,5-dioxo-2,5-dihydro-1H-3-pyrrolyl)-1H-2-indolyl)octyl)-1H-3-indolyl)-1-methyl-2,5-dihydro-1H-pyrrole-2,5-dione] it was 185 °C (dec.). For `O=C1NC(=O)C(c2c(CCCCCCCCCCc3[nH]c4ccccc4c3C3=C(Br)C(=O)NC3=O)[nH]c3ccccc23)=C1Br` [Example 120, 3-Bromo-4-(2-(10-(3-(4-bromo-2,5-dioxo-2,5-dihydro-1H-3-pyrrolyl)-1H-2-indolyl)decyl)-1H-3-indolyl)-2,5-dihydro-1H-pyrrole-2,5-dione], the melting point was 164 °C (dec.). The same measure, in the same setting: in the case of `CN1C(=O)C(c2c(CCCCCc3[nH]c4ccccc4c3C3=C(N4CCCCC4)C(=O)N(C)C3=O)[nH]c3ccccc23)=C(N2CCCCC2)C1=O` [Example 124, 1-Methyl-3-(1-piperidinyl)-4-(2-(5-(3-(1-methyl-4-(1-piperidinyl)-2,5-dioxo-2,5-dihydro-1H-3-pyrrolyl)-1H-2-indolyl)pentyl)-1H-3-indolyl)-2,5-dihydro-1H-pyrrole-2,5-dione] it was 262 °C.
